Results from publication PMC5361079 (Scientific Reports, 2017).
Where two headings read alike, the source gives them in different places.

Key:
[1] = system: anesthetized, male Dunkin-Hartley guinea pigs; conditions: cumulative IV infusion dose 2.5 mg/kg amiodarone alone; cited from earlier work
hiPSC-CMs = experiment: Intracellular prodrug, cleavage intermediate metabolite and NTP metabolite concentrations in hiPSC-CMs; assay type: in vitro ADME, human
Method: Approximately 18 h before dosing, iCell hiPSC-CMs were switched to iCell cardiomyocyte maintenance media free of Penicillin/Streptomycin. […] […] After the corresponding treatment, cells were washed 2x with 200 μL of ice-cold magnesium- and calcium-free PBS buffer. Cells were then lysed in 100 μL of ice-cold lysis solution (70/30 methanol/water containing 20 mM EDTA and 20 mM EGTA, pH 8) by pipetting up and down 5 times. Plates were sealed and transferred on dry ice for determination of prodrug, cleavage intermediate metabolite, and NTP metabolite concentrations. Intracellular prodrug concentrations were measured using a reversed phase HPLC- high resolution mass spectrometry method. A dimethylhexylamine based ion-pairing HPLC-MS/MS method was used to measure intracellular cleavage intermediate metabolite and NTP metabolite concentrations. Intracellular concentrations (pmol/million cells) of prodrug, cleavage intermediate metabolite, and NTP metabolite were quantitated against calibration standards of the same analytes prepared from control iCell hiPSC-CM lysates.
For prodrug analyses, full scan high resolution mass spectrometry data was collected using an Exactive™ Orbitrap mass spectrometer with an electrospray source operated in the positive ion mode. Prodrug chromatograms were extracted from full scan high resolution mass spectrometry data for the masses indicated in Supplementary Table 5. Absence of endogenous interference(s) was verified by extracting the same ion from full scan high resolution mass spectrometry chromatograms of unspiked control cell lysates. For the cleavage intermediate metabolite and NTP metabolite an electrospray MS/MS method run on a SCIEX API 4000 mass spectrometer with turboV ionspray source was used in negative ion mode monitoring the transitions indicated in Supplementary Table 5. Absence of endogenous interference(s) was verified by monitoring of the same MRM transitions for unspiked control cell lysates. Measured intracellular prodrug, cleavage intermediate metabolite, and NTP metabolite concentrations (in pmol/million cells units) were tabulated (Table 2).

[2] = anesthetized guinea pigs, cited from earlier work
hiPSC-CM syncytia = experiment: Spontaneous FP rate and IMP amplitude/beating rate in hiPSC-CM syncytia (RTCA CardioECR / RTCA Cardio); assay type: cell-based, human
Method: hiPSC-CMs (iCells®) from Cellular Dynamics International (CDI, Madison, WI, USA) were seeded onto 48-well CardioECR or 96-well Cardio E-Plates® (ACEA Biosciences Inc., San Diego, CA, USA) coated with 10 μg/mL fibronectin (Sigma Aldrich, Catalog# F1141) at 30,000 cells/well, following manufacturer’s recommendations. Cells were maintained in culture (37 °C, 5% CO2) for a period of 14 days with iCell Maintenance® media (CDI, Madison, WI, USA) exchanged every 2–3 days. Compound addition was only performed on or after Day 14 following cell seeding.
Compound stock solutions were prepared in 100% DMSO or H2O. On the day of compound addition, the media was exchanged with fresh iCell Maintenance® media and allowed to equilibrate for at least 3 h in the incubator. The plates were read on an xCELLigence® RTCA CardioECR or RTCA Cardio (ACEA Biosciences Inc., San Diego, CA, USA). Control pre-reads to establish a baseline were recorded for at least 45 minutes (4 reads at 15-min intervals) prior to compound addition. The compound stock solutions were diluted into iCell Maintenance® media and quickly added to the plate. The plate was continuously monitored for at least 18 h following compound addition. IMP data were sampled at 12 ms (83 Hz), while FP rate data were collected at 0.1 ms (10 KHz). Attachment, growth and viability of syncytia were monitored by means of the baseline IMP signal, as previously described. IMP and FP signals were only interpreted if the baseline IMP was maintained throughout the measurement period (usually ≤18 hrs) at ≥70% of the value before test compound application (pre-read value).

[3] = Cardiac tissue concentrations in anesthetized guinea pigs; assay type: in vivo, guinea pig; conditions: end of IV infusions, prodrug alone or + amiodarone
[4] = 30 Min, SOF-3 mM, SOF + A (0.3 µM amiodarone) + Ebel, LOQ=17
[5] = 10 μM prodrug in the presence of 0.3 μM amiodarone
[6] = prodrug co-administered with 0.3 μM amiodarone, steady state (4 h), spontaneously beating hiPSC-CM syncytia

Q: Which “HR, % change from baseline” value [1] does the source give for `CCCCc1oc2ccccc2c1C(=O)c1cc(I)c(OCCN(CC)CC)c(I)c1` [amiodarone] here?
A: Its value is −7%.

Q: With `CC(C)OC(=O)[C@H](C)NP(=O)(OC[C@H]1O[C@@H](n2ccc(=O)[nH]c2=O)[C@](C)(F)[C@@H]1O)Oc1ccccc1` (stereo partly drawn) [sofosbuvir, isopropyl (2S)-2-[[[(2R,3R,4R,5R)-5-(2,4-dioxopyrimidin-1-yl)-4-fluoro-3-hydroxy-4-methyl-tetrahydrofuran-2-yl]methoxy-phenoxy-phosphoryl]amino]propanoate, reference compound] as the molecule, how does the “Intracellular Concentration, Sofosbuvir (Prodrug)” value (hiPSC-CMs; 4 Hours, SOF-10 μM, SOF) read?
A: Its value is 66.9 ± 6.8 pmol/million cells.

Q: And the “Intracellular Concentration, Sofosbuvir (Prodrug)” value (hiPSC-CMs; 4 Hours, SOF-3 mM, SOF)?
A: Its value is 19.6 ± 5.8 pmol/million cells.

Q: And the “Intracellular Concentration, Sofosbuvir (Prodrug)” value (hiPSC-CMs; 4 Hours, SOF-3 mM, SOF + A (0.3 µM amiodarone) + Ebel)?
A: Its value is 46.9 ± 8.9 pmol/million cells.

Q: And the “Intracellular Concentration, NTP Metabolite” value (hiPSC-CMs; 4 Hours, SOF-3 mM, SOF + A (0.3 µM amiodarone) + Ebel, LOQ=17)?
A: The value was “B LOQ”.

Q: And the “Intracellular Concentration, NTP Metabolite” value (hiPSC-CMs; 4 Hours, SOF-3 mM, SOF, LOQ=17)?
A: Its value is “B LOQ”.

Q: What about the “Intracellular Concentration, NTP Metabolite” value (hiPSC-CMs; 4 Hours, SOF-10 mM, SOF + A (0.3 µM amiodarone) + Ebel, LOQ=17) of the same molecule?
A: Its value is “B LOQ”.

Q: What about the “Intracellular Concentration, Sofosbuvir (Prodrug)” value (hiPSC-CMs; 30 Min, SOF-10 μM, SOF + A (0.3 µM amiodarone) + Ebel) of the same molecule?
A: The value was 53.4 ± 9.5 pmol/million cells.

Q: What about the “Intracellular Concentration, Cleavage Intermediate Metabolite” value (hiPSC-CMs; 30 Min, SOF-10 μM, SOF + A (0.3 µM amiodarone) + Ebel, LOQ=17) of the same molecule?
A: The value was “B LOQ”.

Q: And the “Intracellular Concentration, Sofosbuvir (Prodrug)” value (hiPSC-CMs; 30 Min, SOF-3 mM, SOF)?
A: The value was 19.5 ± 0.9 pmol/million cells.

Q: And the “Intracellular Concentration, Cleavage Intermediate Metabolite” value (hiPSC-CMs; [4])?
A: Its value is “B LOQ”.

Q: What about the “Intracellular Concentration, NTP Metabolite” value (hiPSC-CMs; [4]) of the same molecule?
A: Its value is “B LOQ”.

Q: What about the “Intracellular Concentration, NTP Metabolite” value (hiPSC-CMs; 30 Min, SOF-3 mM, SOF, LOQ=17) of the same molecule?
A: Its value is “B LOQ”.

Q: And the “Intracellular Concentration, NTP Metabolite” value (hiPSC-CMs; 30 Min, SOF-10 mM, SOF + A (0.3 µM amiodarone) + Ebel, LOQ=17)?
A: Its value is “B LOQ”.

Q: What about the “Intracellular Concentration, NTP Metabolite” value (hiPSC-CMs; 30 Min, SOF-10 mM, SOF, LOQ=17) of the same molecule?
A: The value was “B LOQ”.

Q: And the “Intracellular Concentration, NTP Metabolite” value (hiPSC-CMs; SOF-10 mM, 4 Hours, 2a (SAR164653) 50 mM, LOQ=17)?
A: Its value is “B LOQ”.

Q: And the “Intracellular Concentration, NTP Metabolite” value (hiPSC-CMs; SOF-10 mM, 4 Hours, 2a (SAR164653) 100 mM, LOQ=17)?
A: The value was “B LOQ”.

Q: And the “Intracellular Concentration, NTP Metabolite” value (hiPSC-CMs; SOF-10 mM, 30 Min, 2a (SAR164653) 0 mM, LOQ=17)?
A: The value was “B LOQ”.

Q: And the “Intracellular Concentration, NTP Metabolite” value (hiPSC-CMs; SOF-10 mM, 30 Min, 2a (SAR164653) 1 mM, LOQ=17)?
A: Its value is “B LOQ”.

Q: What about the “Intracellular Concentration, NTP Metabolite” value (hiPSC-CMs; SOF-10 mM, 30 Min, 2a (SAR164653) 10 mM, LOQ=17) of the same molecule?
A: Its value is “B LOQ”.

Q: And the “Intracellular Concentration, NTP Metabolite” value (hiPSC-CMs; SOF-10 mM, 30 Min, 2a (SAR164653) 50 mM, LOQ=17)?
A: Its value is “B LOQ”.

Q: And the “Intracellular Concentration, NTP Metabolite” value (hiPSC-CMs; SOF-10 mM, 30 Min, 2a (SAR164653) 100 mM, LOQ=17)?
A: The value was “B LOQ”.

Q: What about the “Intracellular Concentration, Prodrug” value (hiPSC-CMs; hiPSC-CMs, 10 μM prodrug + 0.3 μM amiodarone, 4 Hours) of the same molecule?
A: Its value is 58.4 ± 6.0 pmol/million cells.

Q: And the “Intracellular Concentration, Prodrug” value (hiPSC-CMs; hiPSC-CMs, 10 μM prodrug + 0.3 μM amiodarone, 30 Min)?
A: The value was 45.6 ± 2.0 pmol/million cells.

Q: And the “Intracellular Concentration, NTP Metabolite” value (hiPSC-CMs; hiPSC-CMs, 10 μM prodrug + 0.3 μM amiodarone, 30 Min, BLOQ = below 17 pmol/million cells)?
A: The value was “BLOQ”.

Q: And the “Intracellular Concentration, Prodrug” value (hiPSC-CMs; hiPSC-CMs, 10 μM prodrug alone, 4 Hours)?
A: The value was 50.1 ± 2.1 pmol/million cells.

Q: What about the “Intracellular Concentration, Prodrug” value (hiPSC-CMs; hiPSC-CMs, 10 μM prodrug alone, 30 Min) of the same molecule?
A: Its value is 46.7 ± 3.7 pmol/million cells.

Q: What about the “Intracellular Concentration, NTP Metabolite” value (hiPSC-CMs; hiPSC-CMs, 10 μM prodrug alone, 30 Min, BLOQ = below 17 pmol/million cells) of the same molecule?
A: Its value is “BLOQ*”.

Q: What about the Cardiac sofosbuvir concentration ([2]; cumulative IV sofosbuvir + amiodarone) of the same molecule?
A: The Cardiac sofosbuvir concentration was ~ 6 nmol/g tissue.

Q: What about the Cardiac sofosbuvir concentration ([2]; cumulative IV sofosbuvir alone) of the same molecule?
A: The Cardiac sofosbuvir concentration was ~ 8 nmol/g tissue.

Q: And the “Change in IMP amplitude (RTCA Cardio)” value (hiPSC-CM syncytia; [5])?
A: The value was −97% ± 2%.

Q: What about the “Change in beating rate (IMP-measured, RTCA Cardio)” value (hiPSC-CM syncytia; [5]) of the same molecule?
A: Its value is “+146% ± 11%”.

Q: What about the IMP amplitude (hiPSC-CM syncytia; 11 μM sofosbuvir co-applied with 0.3 μM amiodarone) of the same molecule?
A: Its IMP amplitude is “below the limit of detection”.

Q: What about the “Effect on FP rate” value (hiPSC-CM syncytia; [6]) of the same molecule?
A: Its value is “Concentration-dependent, steady-state effects”.

Q: What about the “Effect on IMP amplitude” value (hiPSC-CM syncytia; [6]) of the same molecule?
A: Its value is “Concentration-dependent, steady-state effects”.

Q: And the “Cleavage intermediate metabolite and NTP metabolite in cardiac tissue” value [3]?
A: Its value is “present”.
